One data set deals with HeLa cells. The data set can be described thus: HeLa cytotoxicity assay (CellTiter Glo, 72 h). The format is cell-based. Conditions: Homo sapiens, read-out: Cell Proliferation Hela IC50. The procedure: (§1) HeLa cells (ATCC® CCL2™) in DMEM (Dulbecco Modified Eagle's Medium) without phenol red, Thermo, 11880, USA+10% FBS+1× PenStrep+1× Gln or HUVEC cells (ATCC® CRL1730™) in EBM-2 (Endothelial Growth Basal Medium, Lonza, CC3156)+EGM-2 SingleQuotsTMSupplements and Growth Factors (Lonza, CC4176)+1× Penicyllin-Streptomycin (PenStrep, ThermoFisher)+1× Glutamine, are plated in a 384 well plate (Thermo, 4334-11, USA) to a density of 2000 cells per well and let recover for four hours at 37° C., 5% CO2 in a humidified atmosphere. After the recovery, compounds are transferred to assay plates as per compound preparation method. Assay plates are then incubated at 37° C., 5% CO2 in a humidified atmosphere for 72 hours. Cell viability is measured by the CellTiter Glo (Promega, G8080, USA) as per manufacturer instruction.

For data set [1], the system named is Bloodstream form of Trypanosoma brucei, strain Lister 427. Nature of the data set: Trypanosoma brucei growth inhibition assay (CellTiter-Glo, 24 h). It is filed as cell-based. Conditions: Trypanosoma brucei. The method in brief: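 Growth read-out was CellTiter-Glo luminescence after 24 h at 37 °C incubation of 1500 bloodstream-form Lister 427 trypanosomes per well with compound, in supplemented IMDM containing 10% FBS and at most 0.25% DMSO.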

A further data set deals with HUVEC cells. Nature of the data set: HUVEC cytotoxicity assay (CellTiter Glo, 72 h). The conditions noted are these: Homo sapiens, read-out: Cell Proliferation HUVEC IC50. It is filed as cell-based. The procedure:
as §1

The nature of data set [2]: PK studies: plasma exposure and pharmacokinetic parameters after i.v., oral and i.p. administration. The format is in vivo, C57BL/6 mice. Here is the method: C57BL/6 mice were used to evaluate plasma exposure and pharmacokinetic parameters after intravenous, oral and intraperitoneal administration (5, 10, 30 mpk). In each animal an indwelling cannula was implanted in the right jugular vein for blood sampling. The surgery was performed under light anaesthesia (Ketamine-Xilazine (85 mg/kg and 2.5 mg/kg respectively i.m.) one day prior the experiment). During the kinetic study, all animals were housed individually in plastic metabolism cages, and were unrestrained throughout the experiment. Compounds (6 mg/mL) were dissolved in PEG400/H2O (50/50). After an overnight fast, the mice (15 animals per experiment) received an i.v. (via caudal vein) or an oral dose of the compound. Blood samples were collected at different times point after dosing. Plasma was separated immediately after blood sampling by centrifugation, and the plasma samples were kept frozen (−20° C.) until assayed by LC/MS/MS.
Analytical procedures: Plasma samples were extracted using Liquid Handling Robot MultiProbe Packard by protein precipitation with acetonitrile. Then the samples were centrifuged (3000 rpm×15 min at 4° C.) and the supernatant transferred and dried under nitrogen. The samples were reconstituted in water/acetonitrile 90/10 and then injected directly into an HPLC column. Sample analyses were performed using a an API 3000 or/and API 2000 or/and API 4000 Mass Spectrometer interfaced via the Turbo Ion Spray (ESI)/APCI to an LC system consisting of an HTS PAL CTC autosampler and an Agilen HP 1100 Binary Pump. The results are calculated using Analyst Software linear regression with 1/x*x weighting. The Assay Precision was calculated for the Quality Controls by Watson Lims database.
Pharmacokinetic Analysis: The plasma clearance (CLp) of the compounds were calculated (using Watson PK program) as the dose divided by the area under the plasma concentration-time curve from time zero to infinity (AUC0-∞). The apparent half-life was estimated from the slope of the terminal phase of the log plasma concentration-time data. The volume of distribution (Vdss) was determined using the following noncompartmental method: Vdss=(Dose IV×AUMC)/(AUC0-∞)2 where AUMC is the total area under the first moment of the drug concentration time curve from time zero to infinity. Bioavailability was estimated as the AUC0-∞ ratio following oral and intravenous administration, normalized for differences in dose.

[3] abbreviates: T. Brucei Growth Inibition Assay, class symbols, read-out: T. Brucei GI EC50.
Where [4] appears, read: Table 3, read-out: T. brucei GI EC50.

Like-named read-outs stand apart in the source and are kept apart here.

`COc1nc2ccccc2cc1-c1cnc(C2CN(CC3CCOC3)CCN2C(=O)Cn2c(C(F)(F)F)nc3ccccc32)[nH]1` (stereo not drawn) [1-(2-(5-(2-methoxyquinolin-3-yl)-1H-imidazol-2-yl)-4-((tetrahydrofuran-3-yl)methyl)piperazin-1-yl)-2-(2-(trifluoromethyl)-1H-benzo[d]imidazol-1-yl)ethan-1-one]: the IC50 in the data set on HeLa cells is 21.5 µM; in the data set on HUVEC cells, 14.1 µM. For the same compound, the EC50 is under 0.1 µM in data set [1] (setting [3]); 0.0299 µM in data set [1] (setting [4]); 0.03 µM in data set [1] (Table 4, read-out: T. brucei Growth inhibition EC50). In addition, the EC90 in data set [1] (Table 4, read-out: T. brucei Growth inhibition EC90) was 0.287 µM. This compound also came in with a clearance in data set [2] (C57BL/6, intravenous, 5 mpk, mouse, plasma clearance) of 2.68 L/h/kg. This compound also gave an exposure (AUC) in data set [2] (C57BL/6, mouse, plasma, oral, 10 mpk) of 4.6 µM·h. Moreover, the bioavailability in data set [2] (C57BL/6, plasma, 10 mg/kg, mouse, 10 mpk, po, single oral dose, read-out: Oral Bioavailability F %) was found to be 78%. The “i.p. max brain concentration” value in data set [2] (mouse, after intraperitoneal injection (30 mpk), brain) is 190 nM.
For `COc1ccc2[nH]c(C)c(CC(=O)N3CCN(C)CC3c3ncc(-c4ccc5ccccc5c4)[nH]3)c2c1` (stereo not drawn) [2-(5-methoxy-2-methyl-1H-indol-3-yl)-1-(4-methyl-2-(5-(naphthalen-2-yl)-1H-imidazol-2-yl)piperazin-1-yl)ethan-1-one], the IC50 in the data set on HeLa cells is at least 25 µM; with HUVEC cells, 21.8 µM. Also, the concentration for a half-maximal effect (EC50) in data set [1] (setting [3]) was under 0.1 µM; in data set [1] (setting [4]), 0.0399 µM.
`COc1nc2ccccc2cc1-c1cnc(C2CN(Cc3nccs3)CCN2C(=O)Cc2c(C)[nH]c3ccc(F)cc23)[nH]1` (stereo not drawn) [2-(5-fluoro-2-methyl-1H-indol-3-yl)-1-(2-(5-(2-methoxyquinolin-3-yl)-1H-imidazol-2-yl)-4-(thiazol-2-ylmethyl)piperazin-1-yl)ethan-1-one]: the IC50 in the data set on HeLa cells is at least 25 µM; with HUVEC cells it was 8.2 µM. The EC50 was under 0.1 µM in data set [1] (setting [3]) and 0.0606 µM in data set [1] (setting [4]).
